In US10252997B2, “Monocyclic compound” (Takeda Pharmaceutical Company Limited, priority 2015, dated 2019):

Tests used:
HCT116 cells = assay: Growth inhibitory activity on HCT116 cell (CellTiter-Glo); type: cell-based; settings: Homo sapiens, HCT-116, 72 h; test compound 1 μM, 3 days; read-out: HCT116 cell proliferation inhibitory rate (%) at 1 μM
Method: The growth inhibitory activity of the compound on HCT116 cell was evaluated by the following method.
HCT116 cells were seeded in a 384 well blackplate at 900 cells/[…]/well, and maintained in an assay medium (RPMI medium (Wako) containing 2% fetal bovine serum, 50 Unit/mL penicillin and […] streptomycin (Invitrogen)). The next day, a test compound dissolved in dimethyl sulfoxide (DMSO) was diluted with the assay medium, and the obtained compound solution was added by […] to each well of a plate containing HCT116 cells, and incubated at 37° C., 5% CO2 (test compound addition group).
A similar reaction was performed without adding a test compound (test compound non-addition group).
Furthermore, a similar reaction was performed under the conditions without adding HCT116 cell and a test compound (control group).
After 3 days, […] of a CellTiter-Glo reagent (Promega KK) was added to the well, and the mixture was stirred for 10 min. Thereafter, the luminescence value of each well was measured by the EnVision™ multilabel counter (Perkin Elmer Inc.).
The HCT116 cell proliferation inhibitory rate (%) of the test compound was determined by the following calculation formula. (1−(luminescence of test compound addition group−luminescence of control group)÷(luminescence of test compound non-addition group−luminescence of control group))×100
The HCT116 cell proliferation inhibitory rates (%) of the test compound (1 μM) are shown below.

Human ACC1 = biological target: T1, Human ACC1 (Homo sapiens, UniProt Q13085); assay: Measurement of ACC1 inhibitory activity (Malonyl-CoA produced, RapidFire-mass spectrometry); type: biochemical; settings: 10 μM of the test compound; read-out: ACC1 inhibitory rate (%) at 10 μM
T1 construct: His6 (from vector pFAST-BacHTc; purified on Ni-NTA) (N); made in house; host or cells: SF-9 insect cells, recombinant baculovirus BAC-ACC1
Method: (1) Cloning of Human ACC1 Gene and Preparation of Recombinant Baculovirus
Human ACC1 gene was cloned by PCR using a human liver cDNA library (Clontech) as a template and Primer 1 and Primer 2 shown below. Primer 1 and Primer 2 were prepared by adding SalI, NotI restriction enzyme recognition sequences based on the information of the base sequence of human ACC1 gene (Genbank Accession U19822).
PCR was performed using Pyrobest DNA polymerase (TAKARA BIO INC.). The obtained PCR product was cloned to pT7 Blue vector (Novagen) and after confirmation of the base sequence, digested with restriction enzymes SalI and […]. The obtained DNA fragment was inserted into pFAST-BacHTc (Invitrogen) digested with restriction enzymes SalI and […] to give expression plasmid ACC1/pFAST-BacHTc.
Using the expression plasmid ACC1/pFAST-BacHTc and BAC-TO-BAC Baculovirus Expression System (Invitrogen), virus stock BAC-ACC1 of recombinant Baculovirus was prepared.
(2) Preparation of ACC1 Protein
SF-9 cells (Invitrogen) were inoculated to a medium (10 L) for insect cells (Sf-900IISFM medium (Invitrogen) containing 5% fetal bovine serum (Trace), 50 mg/L Gentamicin (Wako Pure Chemical Industries, Ltd.) and 0.1% Pluronic F-68 (Invitrogen)) at 1.0×10^6 cells/mL, and cultured with shaking in Wave Bioreactor (GE Healthcare) at 27° C., 20 rpm, rocking angle 100, oxygen concentration 30%.
On day 2 of the culture, recombinant Baculovirus BAC-ACC1 was added, and the cells were cultured for 3 days. The culture medium was centrifuged at 4000×g for 10 min to give virus-infected cells. The cells were washed with phosphate buffered saline (Invitrogen) and centrifuged under the same conditions. The obtained cells were cryopreserved at −80° C.
The cryopreserved cells were thawed in ice, and suspended in 800 mL of 25 mM HEPES buffer (pH 7.5) containing 10% Glycerol, 0.3 M NaCl, 1 mM EDTA, 25 mM Sodium β-Glycerophosphate and 1 mM Sodium Orthovanadate, and supplemented with Complete Protease Inhibitor (Roche). The obtained suspension was homogenized two times in a polytron homogenizer (Kinematica) at 20,000 rpm for 20 sec. The obtained cell disruption solution was clarified by centrifugation at 186,000×g for 60 min, and the supernatant was passed through Ni-NTA Superflow Cartridges (5 mL) (QUIAGEN). Furthermore, it was washed with 25 mM HEPES buffer (pH 7.5) containing 20 mM Imidazole and 0.3 M NaCl, and eluted with 25 mM HEPES buffer (pH 7.5) containing 250 mM Imidazol and 0.3 M NaCl. The eluate was concentrated by Amicon Ultra-15 (Nihon Millipore K.K.) having a fraction molecular weight of 50K. The obtained concentrate was subjected to gel filtration with 50 mM HEPES buffer (pH 7.5) containing 10 mM MgCl2, 2 mM dithiothreitol, 10 mM tripotassium citrate and 0.3 M NaCl by using HiLoad 26/60 Superdex200 prep grade gel filtration column (GE Healthcare) to give ACC1. The obtained ACC1 was cryopreserved at −80° C.
(3) Measurement of ACC1 Inhibitory Activity
ACC1 obtained in the above-mentioned (2) was diluted with an enzyme reaction buffer (50 mM HEPES (pH 7.5), 10 mM MgCl2, 10 mM Tripottasium Citrate, 2 mM Dithiothreitol, 0.001% Fatty acid free BSA) to a concentration of 0.2 μg/ml, and the mixture was added to each well of a 384 well assay plate by 10 μl. A test compound dissolved in dimethyl sulfoxide (DMSO) was diluted with an enzyme reaction buffer, and the resulting solution (5 μl) was added to each well. The mixture was incubated at room temperature for 60 min. Then, a substrate solution (50 mM KHCO3, 200 μM ATP, 200 μM Acetyl-CoA, 5 μl) was added to each well, and the mixture was reacted at room temperature for 30 min. The reaction was quenched by adding a reaction quenching liquid (1.3% formic acid, 0.2 μM Malonyl-^13C3-CoA) by 60 μL each to the obtained reaction mixtures (test compound addition group).
In addition, a reaction was performed in the same manner as above and without adding the test compound (test compound non-addition group). […]

Question: What does the source list for `C[C@@H](COc1cnc(-c2ccc(Oc3cccc(OCC4CC4)c3)cc2)o1)NC(N)=O` [Example 82, 1-((2S)-1-((2-(4-(3-(cyclopropylmethoxy)phenoxy)phenyl)-1,3-oxazol-5-yl)oxy)propan-2-yl)urea]?
Answer: inhibition at 1 µM (HCT116 cells): 33%; inhibition at 10 µM (Human ACC1): 96%
